In patent US5462935A, “Cephalosporin compounds” (Lucky Limited, priority 1990, dated 1995):
Values after ≈ are worked out from the molar mass of the structure shown.

Legend:
ATCC 12228 = assay: minimal inhibitory concentration, two-fold agar dilution; type: cell-based; conditions: Staphylococcus faecalis, ATCC12228, 20 h
Description: (§1) These NIC values were taken by employing a two-fold dilution method: that is, two-fold serial dilutions of each of the test compounds were made and dispersed in a Muller-Hinton agar medium; 2 μl of the standard test strain which had the 10^7 CFU (Colony Forming Unit) per ml was inoculated on the medium; and these were incubated at 37° C. for 20 hours.

[1] = test system: Acinetobacter calcoaceticus ATCC 15473; assay: as above; type: cell-based; conditions: ATCC15473, Muller-Hinton agar, 37° C., 20 hours
Description: as §1

[2] = test system: Bacillus cereus ATCC 11778; assay: as above; type: cell-based; conditions: Bacillus cereus, ATCC11778, 20 h
Description: as §1

[3] = test system: Bacillus megaterium ATCC 9885; assay: as above; type: cell-based; conditions: Priestia megaterium, ATCC9885, 20 h
Description: as §1

[4] = test system: Citrobacter freundii ATCC 8090; assay: as above; type: cell-based; conditions: ATCC8090, Muller-Hinton agar, 37° C., 20 hours
Description: as §1

[5] = test system: Enterobacter aerogenes ATCC 29751; assay: as above; type: cell-based; conditions: Klebsiella aerogenes, ATCC29751, 20 h
Description: as §1

[6] = test system: Enterobacter cloacae ATCC 27508; assay: as above; type: cell-based; conditions: ATCC27508, Muller-Hinton agar, 37° C., 20 hours
Description: as §1

[7] = test system: Escherichia coli ATCC 10536; assay: as above; type: cell-based; conditions: ATCC10536, Muller-Hinton agar, 37° C., 20 hours
Description: as §1

[8] = test system: Escherichia coli ATCC 25922; assay: as above; type: cell-based; conditions: ATCC25922, Muller-Hinton agar, 37° C., 20 hours
Description: as §1

[9] = test system: Klebsiella pneumoniae ATCC 10031; assay: as above; type: cell-based; conditions: ATCC10031, Muller-Hinton agar, 37° C., 20 hours
Description: as §1

[10] = test system: Micrococcus luteus ATCC 9341; assay: as above; type: cell-based; conditions: ATCC9341, Muller-Hinton agar, 37° C., 20 hours
Description: as §1

[11] = test system: Morganella morganii ATCC 8076h; assay: as above; type: cell-based; conditions: ATCC8076H, 20 h
Description: as §1

[12] = test system: Proteus mirabilis ATCC 25933; assay: as above; type: cell-based; conditions: ATCC25933, Muller-Hinton agar, 37° C., 20 hours
Description: as §1

[13] = test system: Proteus vulgaris ATCC 6059; assay: as above; type: cell-based; conditions: ATCC6059, Muller-Hinton agar, 37° C., 20 hours
Description: as §1

[14] = test system: Providencia rettgeri ATCC 9250; assay: as above; type: cell-based; conditions: ATCC9250, Muller-Hinton agar, 37° C., 20 hours
Description: as §1

[15] = test system: Pseudomonas aeruginosa ATCC 25619; assay: as above; type: cell-based; conditions: ATCC25619, Muller-Hinton agar, 37° C., 20 hours
Description: as §1

[16] = test system: Pseudomonas aerugionsa ATCC 10145; assay: as above; type: cell-based; conditions: ATCC10145, Muller-Hinton agar, 37° C., 20 hours
Description: as §1

[17] = test system: Pseudomonas aerugionsa ATCC 27853; assay: as above; type: cell-based; conditions: ATCC27853, Muller-Hinton agar, 37° C., 20 hours
Description: as §1

[18] = test system: Salmonella typhimurium ATCC 14028; assay: as above; type: cell-based; conditions: Salmonella enterica, Muller-Hinton agar, 37° C., 20 hours
Description: as §1

[19] = test system: Serratia marcescens ATCC 27117; assay: as above; type: cell-based; conditions: ATCC27117, Muller-Hinton agar, 37° C., 20 hours
Description: as §1

[20] = test system: Shigella flexneri ATCC 11836; assay: as above; type: cell-based; conditions: ATCC11836, Muller-Hinton agar, 37° C., 20 hours
Description: as §1

[21] = test system: Shigella sonnei ATCC 11060; assay: as above; type: cell-based; conditions: ATCC11060, Muller-Hinton agar, 37° C., 20 hours
Description: as §1

[22] = test system: Staphylococcus aureus ATCC 6638p; assay: as above; type: cell-based; conditions: ATCC6638P, 20 h
Description: as §1

[23] = test system: Staphylococcus epidermidis ATCC 10537; assay: as above; type: cell-based; conditions: ATCC10537, Muller-Hinton agar, 37° C., 20 hours
Description: as §1

[24] = test system: Streptococcus faecalis ATCC 29212; assay: as above; type: cell-based; conditions: Enterococcus faecalis, ATCC29212, Muller-Hinton agar, 37° C., 20 hours
Description: as §1

[25] = acute toxicity test, intravenous; conditions: mouse, in vivo, ICR mice, observed for 14 days
Description: The results are shown in the last row of Table 2.

SMILES	MIC (ATCC 12228) [µg/mL]	MIC [1] [µg/mL]	MIC [2] [µg/mL]	MIC [4] [µg/mL]	MIC [5] [µg/mL]	MIC [6] [µg/mL]	MIC [7] [µg/mL]	MIC [8] [µg/mL]	MIC [9] [µg/mL]	MIC [10] [µg/mL]	MIC [11] [µg/mL]	MIC [12] [µg/mL]	MIC [13] [µg/mL]	MIC [14] [µg/mL]	MIC [15] [µg/mL]	MIC [16] [µg/mL]	MIC [17] [µg/mL]	MIC [18] [µg/mL]	MIC [19] [µg/mL]	MIC [20] [µg/mL]	also measured
Cc1c(N)nc(SCC2=C(C(=O)[O-])N3C(=O)C(NC(=O)/C(=N\O[C@H](C)C(=O)O)c4csc(N)n4)[C@H]3SC2)[n+](N)c1N (stereo partly drawn) [I-R-7, 7-[(Z)-2-(2-aminothiazol-4-yl)-2-[(R)-1-carboxyeth-1-oxyimino]acetamido]-3-[(5-methyl-1,4,6-triaminopyrimidinium-2-yl)thiomethyl]-3-cephem-4-carboxylate]	2 (≈ 3.2 µM)	4 (≈ 6.4 µM)	128 (≈ 205 µM)	0.13 (≈ 0.208 µM)	2 (≈ 3.2 µM)	0.063 (≈ 0.101 µM)	0.063 (≈ 0.101 µM)	0.063 (≈ 0.101 µM)	0.063 (≈ 0.101 µM)	0.5 (≈ 0.8 µM)	≤ 0.008	0.031 (≈ 0.0496 µM)	0.063 (≈ 0.101 µM)	≤ 0.008	2 (≈ 3.2 µM)	2 (≈ 3.2 µM)	2 (≈ 3.2 µM)	0.25 (≈ 0.4 µM)	0.13 (≈ 0.208 µM)	0.031 (≈ 0.0496 µM)	MIC [3]: 0.5 µg/mL (≈ 0.8 µM); MIC [21]: 0.063 µg/mL (≈ 0.101 µM); MIC [22]: 4 µg/mL (≈ 6.4 µM); MIC [23]: 2 µg/mL (≈ 3.2 µM); MIC [24]: > 128 µg/mL; LD50 at 336 h [25]: > 5000 mg/kg
CCC[n+]1c(N)cc(N)nc1SCC1=C(C(=O)[O-])N2C(=O)C(NC(=O)/C(=N\O[C@H](C)C(=O)O)c3csc(N)n3)[C@H]2SC1 (stereo partly drawn) [I-R-4, 7-[(Z)-2-(2-aminothiazol-4-yl)-2-[(R)-1-carboxyeth-1-oxyimino]acetamido]-3-[(4,6-diamino-1-propylpyrimidinium-2-yl)thiomethyl]-3-cephem-4-carboxylate]	1 (≈ 1.57 µM)	8 (≈ 12.5 µM)	64 (≈ 100 µM)	0.063 (≈ 0.0988 µM)	1 (≈ 1.57 µM)	0.016 (≈ 0.0251 µM)	0.063 (≈ 0.0988 µM)	0.063 (≈ 0.0988 µM)	0.063 (≈ 0.0988 µM)	0.5 (≈ 0.784 µM)	≤ 0.008	0.063 (≈ 0.0988 µM)	0.063 (≈ 0.0988 µM)	≤ 0.008	1 (≈ 1.57 µM)	4 (≈ 6.27 µM)	2 (≈ 3.14 µM)	0.25 (≈ 0.392 µM)	0.13 (≈ 0.204 µM)	0.031 (≈ 0.0486 µM)	MIC [3]: 0.5 µg/mL (≈ 0.784 µM); MIC [21]: 0.063 µg/mL (≈ 0.0988 µM); MIC [22]: 2 µg/mL (≈ 3.14 µM); MIC [23]: 2 µg/mL (≈ 3.14 µM); MIC [24]: > 128 µg/mL; LD50 at 336 h [25]: > 3000 mg/kg
Cc1c(N)nc(SCC2=C(C(=O)[O-])N3C(=O)C(NC(=O)/C(=N\O[C@H](C)C(=O)O)c4csc(N)n4)[C@H]3SC2)[n+](C)c1N (stereo partly drawn) [I-R-6, 7-[(Z)-2-(2-aminothiazol-4-yl)-2-[(R)-1-carboxyeth-1-oxyimino]acetamido]-3-[(4,6-diamino-1,5-dimethylpyrimidinium-2-yl)thiomethyl]-3-cephem-4-carboxylate]	2 (≈ 3.21 µM)	4 (≈ 6.41 µM)	128 (≈ 205 µM)	0.063 (≈ 0.101 µM)	1 (≈ 1.6 µM)	0.016 (≈ 0.0257 µM)	0.063 (≈ 0.101 µM)	0.13 (≈ 0.208 µM)	0.063 (≈ 0.101 µM)	0.5 (≈ 0.802 µM)	≤ 0.008	0.031 (≈ 0.0497 µM)	0.063 (≈ 0.101 µM)	≤ 0.008	2 (≈ 3.21 µM)	2 (≈ 3.21 µM)	2 (≈ 3.21 µM)	0.13 (≈ 0.208 µM)	0.13 (≈ 0.208 µM)	0.031 (≈ 0.0497 µM)	MIC [21]: 0.063 µg/mL (≈ 0.101 µM); MIC [22]: 4 µg/mL (≈ 6.41 µM); MIC [23]: 2 µg/mL (≈ 3.21 µM); MIC [24]: > 128 µg/mL; LD50 at 336 h [25]: > 3000 mg/kg
